The IC50 is the concentration needed to halve the response being measured.

In brackets after ≈: the same amount, converted by molar mass.

The record followed here is ChEMBL document CHEMBL1159111, “Design, synthesis and biological evaluation of chrysin long-chain derivatives as potential anticancer agents” (Bioorg Med Chem, 2010).

The test system of experiment [1] is HT-29. The experiment can be described thus: Antiproliferative activity against human HT-29 cells after 48 hrs by MTT assay. The settings on record: HT-29, 48 h. (In general: Formazan colour is commonly taken as a measure of viable cells.)
Experiment [2] deals with Epidermal growth factor receptor (Homo sapiens, UniProt P00533). The experiment can be described thus: Inhibition of EGFR expressed in Sf9 cells assessed as inhibition of receptor autophosphorylation by DELFIA time resolved fluorimetry.
Epidermal growth factor receptor, sequence (P00533 whole entry): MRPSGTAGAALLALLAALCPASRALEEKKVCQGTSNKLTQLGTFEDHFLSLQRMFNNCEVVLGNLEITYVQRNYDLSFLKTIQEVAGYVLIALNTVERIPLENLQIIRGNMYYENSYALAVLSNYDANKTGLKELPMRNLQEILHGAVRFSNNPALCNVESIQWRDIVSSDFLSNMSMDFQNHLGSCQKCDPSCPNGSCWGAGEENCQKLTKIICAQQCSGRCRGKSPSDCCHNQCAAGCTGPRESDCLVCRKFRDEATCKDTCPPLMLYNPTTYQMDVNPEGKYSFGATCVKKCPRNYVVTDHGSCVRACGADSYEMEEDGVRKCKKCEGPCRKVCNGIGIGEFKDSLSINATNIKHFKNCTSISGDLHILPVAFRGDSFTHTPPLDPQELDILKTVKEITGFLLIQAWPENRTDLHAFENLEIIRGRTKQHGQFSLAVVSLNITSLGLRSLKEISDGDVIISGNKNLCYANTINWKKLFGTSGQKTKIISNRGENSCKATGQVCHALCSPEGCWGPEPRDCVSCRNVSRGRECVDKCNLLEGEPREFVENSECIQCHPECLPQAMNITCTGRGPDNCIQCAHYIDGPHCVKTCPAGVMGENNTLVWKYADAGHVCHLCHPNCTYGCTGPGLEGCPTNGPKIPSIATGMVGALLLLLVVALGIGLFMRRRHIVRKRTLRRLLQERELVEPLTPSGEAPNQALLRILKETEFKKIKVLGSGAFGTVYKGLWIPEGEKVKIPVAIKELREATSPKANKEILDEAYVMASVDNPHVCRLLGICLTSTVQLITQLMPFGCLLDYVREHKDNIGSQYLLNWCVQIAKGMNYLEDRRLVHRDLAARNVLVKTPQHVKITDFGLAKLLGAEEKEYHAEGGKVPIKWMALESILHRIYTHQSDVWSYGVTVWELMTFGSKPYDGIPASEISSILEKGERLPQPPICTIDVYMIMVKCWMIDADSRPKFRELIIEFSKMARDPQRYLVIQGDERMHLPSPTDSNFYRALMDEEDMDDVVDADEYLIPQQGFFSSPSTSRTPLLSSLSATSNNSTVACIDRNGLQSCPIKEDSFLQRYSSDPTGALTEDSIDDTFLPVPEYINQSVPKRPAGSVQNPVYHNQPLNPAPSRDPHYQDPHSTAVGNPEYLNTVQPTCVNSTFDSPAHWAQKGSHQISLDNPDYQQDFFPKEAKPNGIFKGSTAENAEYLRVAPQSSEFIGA

`CCCCCCCCCCCCCCOC(=O)COc1cc(O)c2c(=O)cc(-c3ccccc3)oc2c1` came in with an IC50 in experiment [1] of 16 µg/mL (≈ 31.5 µM).
Regarding `CCCCCCCCOC(=O)COc1cc(O)c2c(=O)cc(-c3ccccc3)oc2c1`, the values for the half-inhibitory concentration (IC50) in experiment [2] and in experiment [1] were 5840 nM and 51 µg/mL (≈ 120 µM), respectively.
For `CCCCCCCCCCCCCCCCCCNC(=O)COc1cc(O)c2c(=O)cc(-c3ccccc3)oc2c1`, the IC50 in experiment [2] worked out at 464 nM; in experiment [1], 11 µg/mL (≈ 19.5 µM).
Regarding `CCCCCCOC(=O)COc1cc(O)c2c(=O)cc(-c3ccccc3)oc2c1`, the 50% inhibitory concentration (IC50) in experiment [2] turned out to be 9120 nM; in experiment [1], 77 µg/mL (≈ 194 µM).
On to `CCCCCCCCNC(=O)COc1cc(O)c2c(=O)cc(-c3ccccc3)oc2c1`, for which the IC50 in experiment [2] turned out to be 5330 nM; in experiment [1], 51 µg/mL (≈ 120 µM).
For the molecule `CCCCCCCNC(=O)COc1cc(O)c2c(=O)cc(-c3ccccc3)oc2c1`, the IC50 in experiment [2] is 6280 nM; in experiment [1] it was 65 µg/mL (≈ 159 µM).
With `CCCCCCCCCCCCCCCCOC(=O)COc1cc(O)c2c(=O)cc(-c3ccccc3)oc2c1`, the half-inhibitory concentration (IC50) in experiment [2] amounted to 48 nM; in experiment [1], 8.7 µg/mL (≈ 16.2 µM).
The matching figures for `CCCCCCCCCCCCCCCCCCCCNC(=O)COc1cc(O)c2c(=O)cc(-c3ccccc3)oc2c1`: 1350 nM and 19 µg/mL (≈ 32.1 µM).
In the case of `CCCCCCCCCCCCCCCCNC(=O)COc1cc(O)c2c(=O)cc(-c3ccccc3)oc2c1`, the 50% inhibitory concentration (IC50) in experiment [2] came to 35 nM; in experiment [1], 4.2 µg/mL (≈ 7.84 µM).
Taken in the same sequence, the figures for `CCCCCCCCCCCCCCCCCCOC(=O)COc1cc(O)c2c(=O)cc(-c3ccccc3)oc2c1` were 692 nM and 15 µg/mL (≈ 26.6 µM).
As for `CCCCCCCCCCNC(=O)COc1cc(O)c2c(=O)cc(-c3ccccc3)oc2c1`, the results for the half-maximal inhibitory concentration (IC50) in experiment [2] and in experiment [1] were 2140 nM and 25 µg/mL (≈ 55.4 µM), respectively.
In the case of `CCCCCCCCCCCCOC(=O)COc1cc(O)c2c(=O)cc(-c3ccccc3)oc2c1`, the IC50 worked out at 1720 nM in experiment [2] and 24 µg/mL (≈ 49.9 µM) in experiment [1].
For `CCCCCCCCCCCCCCCCCCCCOC(=O)COc1cc(O)c2c(=O)cc(-c3ccccc3)oc2c1`, the half-inhibitory concentration (IC50) in experiment [2] was determined as 1590 nM; in experiment [1] it was 20 µg/mL (≈ 33.7 µM).
For the molecule `CCCCCCCCCCCCCCNC(=O)COc1cc(O)c2c(=O)cc(-c3ccccc3)oc2c1`, the IC50 in experiment [2] amounted to 316 nM; in experiment [1], 8 µg/mL (≈ 15.8 µM).
Take `CCCCCCCCCNC(=O)COc1cc(O)c2c(=O)cc(-c3ccccc3)oc2c1`: the results for the half-maximal inhibitory concentration (IC50) in experiment [2] and in experiment [1] were 3580 nM and 39 µg/mL (≈ 89.1 µM), respectively.
In experiment [1], `CCCCCCCCCCCCNC(=O)COc1cc(O)c2c(=O)cc(-c3ccccc3)oc2c1` showed a half-maximal inhibitory concentration (IC50) of 16 µg/mL (≈ 33.4 µM).
On to `CCCCCCCOC(=O)COc1cc(O)c2c(=O)cc(-c3ccccc3)oc2c1`, for which the IC50 in experiment [2] stood at 7230 nM; in experiment [1], 58 µg/mL (≈ 141 µM).
Regarding `CCCCCCCCCOC(=O)COc1cc(O)c2c(=O)cc(-c3ccccc3)oc2c1`, the 50% inhibitory concentration (IC50) in experiment [2] stood at 4960 nM; in experiment [1], 43 µg/mL (≈ 98.1 µM).
For `CCCCCCNC(=O)COc1cc(O)c2c(=O)cc(-c3ccccc3)oc2c1`, the IC50 in experiment [2] was determined as 8710 nM; in experiment [1], 67 µg/mL (≈ 169 µM).
For `CCCCCCCCCCOC(=O)COc1cc(O)c2c(=O)cc(-c3ccccc3)oc2c1`, the concentration for half-maximal inhibition (IC50) in experiment [2] came out at 3110 nM; in experiment [1] it was 31 µg/mL (≈ 68.5 µM).
